Some test systems named below: SF-539; HL-60; HT-29; A498; NCI-H226; SF-295; OVCAR-5; MCF7; SNB-75; EKVX; HCC 2998; LOX IMVI; SN12C; UO-31; HCT-116; UACC-62; HCT-15; OVCAR-4; IGROV-1; NCI-H23.
Common to all, as to assay: NCI tumour cell line growth inhibition, 48 h

Molecules are shown by their SMILES.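 96-well plates; 48 h exposure; 5 concentrations. Endpoints by linear interpolation between flanking doses. Not reached: highest tested concentration assigned. Here, GI50 denotes the concentration required for 50% inhibition of growth.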 Calls of active or inactive are those of the source. Cut-off read from the data, not from the text of the source: active = GI50 up to about 1.1 µM and inactive = higher.

Regarding `CC1=CC(O)C(O)C2(C)C1CC1OC(=O)C(O)C3C(C)C(O)C4(O)OCC13C42` (stereo not given), the GI50 was 39.2 µM (inactive) with SF-539; 33 µM (inactive) with HL-60; 38.1 µM (inactive) in the test with HT-29; 17.9 µM (inactive) in the test on A498; 41.3 µM (inactive) in the test on NCI-H226; 28.8 µM (inactive) in the test with SF-295. Also, the GI50 in the test with OVCAR-5 is 161 µM (inactive); in the test with MCF7, 91.6 µM (inactive); with SNB-75 it was 6.18 µM (inactive); with EKVX, 30.9 µM (inactive); in the test with HCC 2998 it was 16.8 µM (inactive); with LOX IMVI, 37.8 µM (inactive). Also, the GI50 with SN12C was 236 µM (inactive); with UO-31, 110 µM (inactive); with HCT-116, 99.5 µM (inactive); in the test on UACC-62, 84.3 µM (inactive); in the test with HCT-15, 335 µM; in the test with OVCAR-4, 40.9 µM (inactive). Moreover, the GI50 with IGROV-1 was 15.9 µM (inactive); with NCI-H23, 49.5 µM (inactive).

For the compound `CCNC(=O)C(C)C1CCC2(C)C=CC(=O)C(C)=C2C1O` (stereo not given), the GI50 in the test with SF-539 is > 100 µM (inactive); in the test on HL-60 it was > 100 µM (inactive); in the test on HT-29 it was > 100 µM (inactive); with A498, > 100 µM (inactive); in the test with NCI-H226, > 100 µM (inactive); in the test on SF-295, > 93.5 µM (inactive). For the same compound, the GI50 was > 100 µM (inactive) in the test on OVCAR-5; > 100 µM (inactive) in the test on MCF7; > 100 µM (inactive) with SNB-75; > 100 µM (inactive) in the test with EKVX; > 100 µM (inactive) with HCC 2998; > 91 µM (inactive) in the test on LOX IMVI. Further, the GI50 with SN12C is > 100 µM (inactive); in the test on UO-31 it was > 73.6 µM (inactive); in the test with HCT-116, > 100 µM (inactive); in the test with UACC-62 it was > 100 µM (inactive); in the test with HCT-15, over 100 µM; in the test with OVCAR-4, > 100 µM (inactive). The GI50 in the test with IGROV-1 was 98.4 µM (inactive); in the test on NCI-H23, > 100 µM (inactive).

As to `O=C1OC2CC=CC1C2` (stereo not given), the GI50 in the test with SF-539, in the test on HL-60, in the test on HT-29, in the test on A498, in the test with NCI-H226 and in the test with SF-295 was > 100 µM (inactive) each time. For the same compound, the GI50 with OVCAR-5, with MCF7, in the test on SNB-75, with EKVX, in the test on HCC 2998 and in the test on LOX IMVI was > 100 µM (inactive) throughout. Moreover, the GI50 in the test on SN12C was > 100 µM (inactive); in the test on UO-31, > 100 µM (inactive); with HCT-116, > 100 µM (inactive); in the test with UACC-62, > 100 µM (inactive); in the test with HCT-15, over 100 µM; with OVCAR-4, > 100 µM (inactive). In addition, the GI50 in the test with IGROV-1 and with NCI-H23 was > 100 µM (inactive) each time.

Regarding `C[N+](C)(CCO)CCN1c2ccccc2Sc2ccccc21`, the GI50 in the test with SF-539, in the test with HL-60, with HT-29, with A498, in the test with NCI-H226 and with SF-295 was > 10 µM (inactive) each time. In addition, the GI50 in the test on OVCAR-5, with MCF7, in the test on SNB-75, with EKVX, in the test on HCC 2998 and in the test on LOX IMVI was > 10 µM (inactive) throughout. In addition, the GI50 in the test with SN12C is > 10 µM (inactive); in the test with UO-31, 3.52 µM (inactive); with HCT-116 it was > 10 µM (inactive); in the test on UACC-62, > 10 µM (inactive); in the test with HCT-15, over 10 µM; in the test on OVCAR-4 it was > 10 µM (inactive). The GI50 with IGROV-1 and with NCI-H23 was > 10 µM (inactive) in each case.

`CC(C)[C@](O)(C(=O)OCC1CC[N+]2([O-])CC[C@@H](O)C12)[C@H](C)O` (stereo not given in full): the GI50 with SF-539 was > 375 µM (inactive); in the test on HL-60, > 375 µM (inactive); with HT-29, > 375 µM (inactive); in the test on A498, > 59.4 µM (inactive); in the test with NCI-H226, > 375 µM (inactive); with SF-295, > 375 µM (inactive). Besides, the GI50 in the test on OVCAR-5 was > 375 µM (inactive); in the test on MCF7, > 375 µM (inactive); in the test on SNB-75, 126 µM (inactive); with EKVX it was > 375 µM (inactive); in the test with HCC 2998, > 277 µM (inactive); with LOX IMVI it was > 142 µM (inactive). Moreover, the GI50 in the test on SN12C is > 375 µM (inactive); in the test with UO-31, > 375 µM (inactive); in the test on HCT-116, > 255 µM (inactive); with UACC-62, > 375 µM (inactive); with HCT-15, over 375 µM; in the test with OVCAR-4 it was > 375 µM (inactive). The GI50 in the test on IGROV-1 and with NCI-H23 was > 375 µM (inactive) in each case.
